Measured values from US7041785B1, “B1-bradykinin receptor antagonists and use thereof” (Université de Sherbrooke, priority 1996, dated 2006).
Non-standard residues stand in square brackets, D forms with d. Residues, ends and D or L forms follow the SMILES beside them. Tyr(3,5-I2) = N[C@@H](Cc1cc(I)c(O)c(I)c1)C(=O)O; Oic = O=C(O)[C@@H]1C[C@@H]2CCCC[C@@H]2N1; d2Nal = N[C@H](Cc1ccc2ccccc2c1)C(=O)O; Hyp = O=C(O)[C@@H]1C[C@@H](O)CN1; dTic = O=C(O)[C@H]1Cc2ccccc2CN1; 2Thi = N[C@@H](Cc1cccs1)C(=O)O; Ahx = NCCCCCC(=O)O; Sar = CNCC(=O)O

Experiments:
[1] = system: T1, angiotensin-converting enzyme (ACE); test: Metabolic degradation by purified angiotensin-converting enzyme, HPLC analysis; assay type: in vitro ADME, rabbit; settings: rabbit, isolated enzyme ace, pH 7.5
T1 construct: purified angiotensin-converting enzyme (ACE) from rabbit lungs; purchased Sigma, St-Louis, Mo; host or cells: purified from rabbit lungs
In short: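 Purified rabbit lung ACE (45 μg/mL final) in PBS (50 mmol/L, pH 7.5, 300 mmol/L NaCl) was incubated with peptides at 37 °C; peptides were pre-incubated 5 min before enzyme addition and samples were boiled to stop the reaction. Percent kinin degradation after 30 min was quantified by C18 reverse-phase HPLC at 214 nm, with metabolites identified by electrospray MS.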

[2] = molecular target: T2, B1 receptor (Oryctolagus cuniculus, UniProt P48748); test: cell-based; settings: for Kb: Rb.A. pA2, apparent affinity as antagonist vs desArg9BK, antagonist applied 10 min before, Inactive = no detectable antagonistic effect at ≦ 10 μg/ml
T2 sequence (P48748 1-352): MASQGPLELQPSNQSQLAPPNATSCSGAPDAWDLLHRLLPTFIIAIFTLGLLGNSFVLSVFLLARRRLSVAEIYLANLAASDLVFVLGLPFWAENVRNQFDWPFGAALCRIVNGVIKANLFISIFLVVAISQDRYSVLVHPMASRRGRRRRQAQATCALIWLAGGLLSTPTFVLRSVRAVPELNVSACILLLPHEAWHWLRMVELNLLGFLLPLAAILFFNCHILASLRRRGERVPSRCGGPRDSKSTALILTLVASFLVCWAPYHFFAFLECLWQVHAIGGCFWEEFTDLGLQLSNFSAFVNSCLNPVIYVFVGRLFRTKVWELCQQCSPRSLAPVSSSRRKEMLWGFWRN
In short: (§1)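 Isolated rabbit jugular vein (captopril 1 μmol/L), guinea pig ileum, endothelium-free rabbit aorta and human umbilical vein, in Krebs at 37 °C, with isometric tension recorded. Agonism was tested at 10 μg/mL.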

[3] = molecular target: T3, B2 receptor (Oryctolagus cuniculus, UniProt Q28642); test: cell-based
T3 sequence (Q28642 1-367): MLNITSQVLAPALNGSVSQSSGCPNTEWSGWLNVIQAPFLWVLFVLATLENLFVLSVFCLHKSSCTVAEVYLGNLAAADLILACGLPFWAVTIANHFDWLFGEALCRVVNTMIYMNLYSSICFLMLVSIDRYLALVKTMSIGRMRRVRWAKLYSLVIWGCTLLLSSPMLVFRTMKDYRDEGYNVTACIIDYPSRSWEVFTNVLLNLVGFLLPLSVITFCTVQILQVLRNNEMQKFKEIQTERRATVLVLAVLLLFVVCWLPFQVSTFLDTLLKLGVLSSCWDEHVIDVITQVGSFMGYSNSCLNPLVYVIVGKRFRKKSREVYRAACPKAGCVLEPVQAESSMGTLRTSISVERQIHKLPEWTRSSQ
In short: as §1

Row | Compound | metabolised at 0.5 h, 42.1 μmol/L [1] [%] | Kb [2] [nM] | Rb.A. α^E ([2]; residual agonistic activity at 10 μg/mL in comparison with desArg9BK) | Rb.J.V. α^E ([3]; residual agonistic activity at 10 μg/mL in comparison with BK) | Kb [3] [µM] | metabolised at 0.5 h ([1]; 30 min incubation of peptide (200 μmol/L) with ACE, 37 C, read-out: ACE (% degradation)) [%]
1 | CC(=O)N[C@@H](Cc1ccc(O)cc1)C(=O)NCCCCCC(=O)N[C@@H](CCCCN)C(=O)N[C@@H](CCCNC(=N)N)C(=O)N1CCC[C@H]1C(=O)N1CCC[C@H]1C(=O)NCC(=O)N[C@@H](Cc1ccccc1)C(=O)N[C@@H](CO)C(=O)N1CCC[C@H]1C(=O)N[C@@H](CC(C)C)C(=O)O [Compound 27, AcTyrεAhxLys(Leu^8)desArg^9BK] | 52 ± 1 | 7.94 | 0 | 0.03 | – | –
2 | CC[C@H](C)[C@H](NC(=O)[C@@H](Cc1ccc2ccccc2c1)NC(=O)[C@H](CO)NC(=O)[C@H](Cc1ccccc1)NC(=O)CNC(=O)[C@@H]1CCCN1C(=O)[C@@H]1CCCN1C(=O)[C@H](CCCNC(=N)N)NC(=O)[C@H](CCCCN)NC(=O)CCCCCNC(=O)[C@H](Cc1ccc(O)cc1)NC(=O)CNC)C(=O)O [Compound 29, SarTyrεAhxLys(D-βNal^7, Ile^8)desArg^9BK] (H-[Sar]Y[Ahx]KRPPGFS[d2Nal]I-OH; N-terminus and C-terminus assumed) | 15 ± 1 | 3.31 | – | – | 6.31 | –
3 | CC[C@H](C)[C@H](NC(=O)[C@@H](Cc1ccc2ccccc2c1)NC(=O)[C@H](CO)NC(=O)[C@H](Cc1ccccc1)NC(=O)CNC(=O)[C@@H]1CCCN1C(=O)[C@@H]1CCCN1C(=O)[C@H](CCCNC(=N)N)NC(=O)[C@H](CCCCN)NC(=O)CCCCCNC(=O)[C@H](Cc1cc(I)c(O)c(I)c1)NC(=O)CNC)C(=O)O [Compound 30, SarTyr(3,5-I)εAhxLys(D-βNal^7, Ile^8)desArg^9BK] (H-[Sar][Tyr(3,5-I2)][Ahx]KRPPGFS[d2Nal]I-OH; N-terminus and C-terminus assumed) | 13 ± 1 | 7.24 | – | – | 7.41 | –
4 | N=C(N)NCCC[C@@H](N)C(=O)N[C@@H](CCCNC(=N)N)C(=O)N1CCC[C@H]1C(=O)N1C[C@H](O)C[C@H]1C(=O)NCC(=O)N[C@@H](Cc1cccs1)C(=O)N[C@@H](CO)C(=O)N1Cc2ccccc2C[C@@H]1C(=O)N1[C@H](C(=O)O)C[C@@H]2CCCC[C@@H]21 [Compound 31, D-Arg(Hyp^3, Thi^5, D-Tic^7, Oic^8)desArg^9BK, reference compound] (H-[dR]RP[Hyp]G[2Thi]S[dTic][Oic]-OH; N-terminus and C-terminus assumed) | – | 158 | – | – | 0.0417 | 0
